Experiment [1] deals with S. aureus T28.1 (MRSA). Description: Broth microdilution MIC. It counts as cell-based, Staphylococcus aureus. As for the experimental part:
(§1) The protocol employed was inspired by Abedini et al. with some modifications. Products were solubilized in DMSO and serially diluted two-fold in MH medium. A bacterial suspension at 10^5 CFU/mL was added to obtain a final volume of 200 µL. Final phenolic product concentrations in wells ranged from 625 to 2.4 µg/mL (exception for lupulone for which dilutions were continued until 0.3 µg/mL). […] Plates were incubated overnight with stirring (60 rpm) at 37 °C.
For the following experiments, the MRSA strain T28.1, isolated from a pathological sample of osteitis, was used. It was previously characterized by DNA biochips, which allowed highlighting some β-lactamases and the SCC-mec genes confirming the methicillin resistance. Moreover, genes for enzymes and proteins involved in the capsule biosynthesis (capH5, capJ5 and capK5) and several intracellular adhesion proteins implicated in biofilm formation (icaA, icaC and icaD) were present.

Experiment [2] relates to S. aureus 08143 (MSSA). In words: Broth microdilution MIC. It counts as cell-based, Staphylococcus aureus. Particulars: for MIC: S. aureus 08143 (MSSA). As for the experimental part: as §1
For orientation: Broth dilution looks for growth in wells or tubes with falling amounts of substance.

Experiment [3] concerns S. aureus T25.10 (MRSA). Description: Broth microdilution MIC. It is filed as cell-based, Staphylococcus aureus. As to conditions: for MIC: S. aureus T25.10 (MRSA). As for the experimental part: as §1
Experiment [4] relates to S. aureus T26A4 (MSSA). Description: Broth microdilution MIC. It counts as cell-based, Staphylococcus aureus. Particulars: for MIC: S. aureus T26A4 (MSSA). As for the experimental part: as §1
For experiment [5], the system named is Candida albicans 13203. In words: First screening, agar dilution MIC. It is filed as cell-based. For orientation: Agar dilution tests growth on a series of plates holding different concentrations.
For experiment [6], the system named is Candida albicans ATCC 10231. Description: First screening, agar dilution MIC. It counts as cell-based.
In experiment [7] the test system is Hep-G2 cells (hepatocellular carcinoma). Description: Cytotoxicity / antiproliferative effect. It is filed as cell-based, human. As to conditions: Homo sapiens. The method, then:
(§2) Several human cell lines were used for the cytotoxic bioassays: non-cancer lung fibroblasts (WI-38), hepatocellular carcinoma (Hep-G2), osteosarcoma (MG-63) and the mouse monocyte macrophage J774. Cells were seeded into wells of a 96-well microplate in a Gibco™ Dulbecco’s modified eagles medium (DMEM), except for MG-63 which were cultivated in a minimum essential medium (MEM) (ThermoFisher Scientific, Illkirch-Graffenstaden, France). Both media were enriched with 10% FBS (ThermoFisher Scientific, France) and some antibiotics (mixture penicillin/streptomycin 100 UI/mL, Sigma Aldrich). After one or two days at 37 °C (5% of CO2), wells were emptied by suction. Cells were then treated with hops compounds (xanthohumol, desmethylxanthohumol, humulone, lupulone) in DMSO at 0.2% in the culture medium, to obtain a final volume of 100 µL in wells (negative control: 0.2% DMSO). Camptothecin was used as a positive control. After 48 to 72 h exposure, culture medium was replaced by 10% of Alamar blue or 3-(4,5-dimethylthiazol-2-yl)-2,5-diphenyltetrazolium bromide (MTT) in the medium (ThermoFisher Scientific®, Illkirch, France) and plates were incubated the time necessary to the reaction. Results were measured respectively by fluorescence (excitation 530 nm and emission 590 nm) or by optical density at 550 nm. The IC50 of each product was determined using GraphPad Prism (version 5.01).

Experiment [8] deals with WI-38 cells (non-cancer lung fibroblasts). In words: Cytotoxicity / antiproliferative effect. It counts as cell-based, human. The method, then:
as §2

Experiment [9] deals with J774 cells (monocyte macrophage). In words: Cytotoxicity / antiproliferative effect. It is filed as cell-based, mouse. The method, then:
as §2

The subject of experiment [10] is MG-63 cells (osteosarcoma). In words: cells. Particulars: Homo sapiens, MG-63. It is filed as cell-based, human. As for the experimental part: as §2
In experiment [11] the test system is S. aureus T28.1 (MRSA). Description: Synergies by checkerboard method. It counts as cell-based, Staphylococcus aureus. As for the experimental part:
Checkerboard method was used to assess the potential co-action of xanthohumol, desmethylxanthohumol and lupulone between them or with some antibiotics. Antibiotics were previously selected on the basis of a first screening using E-tests (BioMérieux®, France). […] Each test was performed on a 96-well microplate using an 8-by-8 well configuration. […] Wells were filled with 100 µL of MH medium, 10 µL of each compound (DMSO for products and water for antibiotics) and 80 µL of a 10^5 CFU/mL bacterial suspension with appropriate solvent controls. […] The MIC of each product alone was checked at each test. Microplates were incubated overnight at 60 rpm and 37 °C.
After visual analysis, the combination with the highest activity was determined by the calculation of the fractional inhibitory concentration (FIC) index, interpreted as synergistic (FIC < 0.5), additive (0.5 ≤ FIC ≤ 1), indifferent (1 < FIC ≤ 4) or antagonist (FIC > 4).
FIC index=MIC A with B/MIC A alone+ MIC B with A/MIC B alone

Experiment [12] relates to Leishmania mexicana mexicana (Lmm). In words: Antiparasitic activity, broth microdilution. It counts as cell-based. As for the experimental part:
(§3) Tbb were cultivated in HMI9 medium containing 10% heat-inactivated foetal bovine serum (FBS) (Sigma-Aldrich), […] L-cysteine and […] beta-mercaptoethanol at 37 °C (CO2 5%). Lmm (MHOM/BZ/84/BEL46) were cultivated in SDM-79 medium (Gibco) supplemented with 15% heat-inactivated FBS (Sigma-Aldrich) and 5 mg/L hemin at 28 °C (CO2 5%). Antiparasitic bioassays were performed as described by Bero et al.. Suramin (SUR) and pentamidine (PEN) were used as positive controls respectively. The hops compounds (xanthohumol, desmethylxanthohumol, humulone, lupulone) concentration that inhibits 50% of the cell viability (IC50) was determined using GraphPad Prism, version 5.01 (GraphPad Software, San Diego, CA, USA).

For experiment [13], the system named is Trypanosoma brucei brucei (Tbb). In words: Antiparasitic activity, broth microdilution. It is filed as cell-based. The method, then:
as §3

Setting [14] is: Staphylococcus aureus, S. aureus T28.1 (MRSA), read-out: MIC.
Where [15] appears, read: Staphylococcus aureus, S. aureus T28.1 (MRSA), value in parentheses, read-out: MIC.
Where [16] appears, read: Staphylococcus aureus, read-out: MIC.
The mark [17] stands for this setting: Staphylococcus aureus, value in parentheses, read-out: MIC.
[18] abbreviates: value in parentheses, read-out: IC50 (converted).
The mark [19] stands for this setting: value in parentheses, read-out: MIC.

Like-named read-outs stand apart in the source and are kept apart here.

On to `CC(C)=CCC1=C(O)C(O)(CC=C(C)C)C(=O)C(C(=O)C(C)C)=C1O` (stereo in doubt) [Cohumulone, cohumulone], for which the minimum inhibitory concentration (MIC) (usually the least concentration at which growth counts as inhibited) in [1] (setting [14]) was 156 µg/mL; in experiment [1] (setting [15]), 448 µM; in [2] (setting [16]), 313 µg/mL; in experiment [2] (setting [17]) it was 899 µM; in [3] (setting [16]), 313 µg/mL; in experiment [3] (setting [17]) it was 899 µM. Further, the MIC came to 313 µg/mL in [4] (setting [16]) and 899 µM in [4] (setting [17]).
Take `C[C@@H]1[C@H](O)[C@@H](C)/C=C/C=C/C=C/C=C/C=C/C=C/C=C/[C@H](O[C@@H]2O[C@H](C)[C@@H](O)[C@H](N)[C@@H]2O)C[C@@H]2O[C@](O)(C[C@@H](O)C[C@@H](O)[C@H](O)CC[C@@H](O)C[C@@H](O)CC(=O)O[C@H]1C)C[C@H](O)[C@H]2C(=O)O` [AMB, Amphotericin B]: the “Susceptibility to AMB” value in [5] and in [6] was “S (Amphotericin B (AMB) S ≤ 1)” in each case.
For the molecule `CC[C@@]1(O)C(=O)OCc2c1cc1n(c2=O)Cc2cc3ccccc3nc2-1` [CAMP, camptothecin], the IC50 (in general, the concentration that inhibits the measured activity by half) in experiment [7] (HepG2, read-out: IC50 ± SD) is 0.4 ± 0.2 µg/mL; in experiment [7] (HepG2, value in parentheses, read-out: IC50 (converted)), 1.15 µM; in experiment [8] (Homo sapiens, read-out: IC50 ± SD), 0.06 µg/mL; in experiment [8] (Homo sapiens, value in parentheses, read-out: IC50 (converted)), 0.17 µM; in [9] (Mus musculus, read-out: IC50 ± SD) it was 0.01 µg/mL; in [9] (Mus musculus, value in parentheses, read-out: IC50 (converted)), 0.03 µM. The concentration for half-maximal inhibition (IC50) in [10] (read-out: IC50 ± SD) is 4.4 ± 1.5 µg/mL; in experiment [10] (setting [18]), 12.6 µM.
As for `CC(C)=CCC1=C(O)C(CC=C(C)C)(CC=C(C)C)C(=O)C(C(=O)C(C)C)=C1O` [Colupulone, colupulone], the MIC in experiment [1] (setting [14]) worked out at 39 µg/mL; in experiment [1] (setting [15]), 97.5 µM; in experiment [2] (setting [16]) it was 78 µg/mL; in experiment [2] (setting [17]) it was 195 µM; in experiment [3] (setting [16]), 78 µg/mL; in [3] (setting [17]) it was 195 µM. Also, the minimum inhibitory concentration (MIC) in experiment [4] (setting [16]) stood at 39 µg/mL; in experiment [4] (setting [17]), 97.5 µM.
For `OC(Cn1cncn1)(Cn1cncn1)c1ccc(F)cc1F` [FLC, Fluconazole], the results for the “Susceptibility to FLC” value in experiment [5] and in [6] were “R (R > 4)” and “S (Fluconazole (FLC) S ≤ 2)”, respectively.
On to `COc1cc(O)c(CC=C(C)C)c2c1C(=O)CC(c1ccc(O)cc1)O2` (stereo not shown) [Isoxanthohumol, isoxanthohumol], for which the MIC in [1] (Staphylococcus aureus, strain MRSA T28.1, read-out: MIC) worked out at 39 µg/mL.
For `Cc1onc(-c2ccccc2)c1C(=O)N[C@@H]1C(=O)N2[C@@H]1SC(C)(C)[C@@H]2C(=O)O` [OXA, oxacillin], the “Susceptibility to OXA” value in [1] (S. aureus T28.1) was “R (R ≥ 4 µg/mL)”; in experiment [2] (S. aureus 08143) it was “S (S ≤ 2 µg/mL)”; in [3] (S. aureus T25.10), “R (R ≥ 4 µg/mL)”; in experiment [4] (S. aureus T26A4), “S (S ≤ 2 µg/mL)”. In addition, the “MIC for oxacillin in combination” value in [11] (in the presence of lupulone) and in experiment [11] (in the presence of xanthohumol) was < 2 µg/mL throughout.
As to `N=C(N)c1ccc(OCCCCCOc2ccc(C(=N)N)cc2)cc1` [PEN, pentamidine], the IC50 in experiment [12] (Leishmania mexicana, read-out: IC50 (converted)) was 0.07 µg/mL; in [12] (Leishmania mexicana, value in parentheses, read-out: IC50 (converted)) it was 0.21 µM.
For `Cc1ccc(C(=O)Nc2ccc(S(=O)(=O)O)c3cc(S(=O)(=O)O)cc(S(=O)(=O)O)c23)cc1NC(=O)c1cccc(NC(=O)Nc2cccc(C(=O)Nc3cc(C(=O)Nc4ccc(S(=O)(=O)O)c5cc(S(=O)(=O)O)cc(S(=O)(=O)O)c45)ccc3C)c2)c1` [SUR, suramin], the concentration for half-maximal inhibition (IC50) in experiment [13] (Trypanosoma brucei, read-out: IC50 (converted)) was 0.05 µg/mL; in experiment [13] (Trypanosoma brucei, value in parentheses, read-out: IC50 (converted)), 0.038 µM.
In the case of `C[C@@H](c1ncncc1F)[C@](O)(Cn1cncn1)c1ccc(F)cc1F` [VRC, Voriconazole], the “Susceptibility to VRC” value in experiment [5] is listed as “R (R > 0.12)”; in [6], “S (Voriconazole (VRC) S ≤ 0.12)”.
Turning to `CO[C@H]1/C=C/O[C@@]2(C)Oc3c(C)c(O)c4c(O)c(c(/C=N/N5CCN(C)CC5)c(O)c4c3C2=O)NC(=O)/C(C)=C\C=C\[C@H](C)[C@H](O)[C@@H](C)[C@@H](O)[C@@H](C)[C@H](OC(C)=O)[C@@H]1C` [rifampicin], in [11] (rifampicin combined with xanthohumol), the “times more active when combined” value was found to be 8 times.
humulone: the MIC in experiment [1] (S. aureus T28.1 (MRSA)) came to 78 µg/mL; in experiment [1] (S. aureus T28.1 (MRSA), value in parentheses, read-out: MIC), 215.5 µM; in experiment [2], 156 µg/mL; in [2] (setting [19]), 430.9 µM; in [3] it was 156 µg/mL; in [3] (setting [19]), 430.9 µM. Moreover, the MIC in [4] stood at 156 µg/mL; in experiment [4] (setting [19]) it was 430.9 µM. Moreover, the IC50 in experiment [12] is 28.8 ± 1.5 µg/mL; in [12] (setting [18]) it was 77.9 µM; in experiment [13], 10.9 ± 0.8 µg/mL; in experiment [13] (setting [18]), 30.1 µM; in experiment [8] (setting [18]), 29 µM; in experiment [9] (setting [18]) it was 31.7 µM. Also, the “IC50 ± SD” value in [8] stood at 10.5 ± 2.3 µg/mL; in [9], 11.5 ± 0.3 µg/mL.
